According to patent US9550732B2, “Salt of pyrrolidin-3-yl acetic acid derivative and crystals thereof” (Eisai R&D Management Co., Ltd., priority 2013, dated 2017):

Tested on: T cell transfer colitis model
Experiment: Amelioration of body weight loss in T cell transfer-induced colitis model
Format: in vivo
Details: colitis-induced SCID mice injected with CD4-positive CD45RB-high cells; orally once a day from Day 16 to 31; body weight Day 19-31
Description: By using colitis-induced SCID mice in which CD4-positive, CD45RB-high cells isolated from BALB/c mice splenocytes were injected, the efficacy of the example compounds was evaluated by the body weight changes. The experiment was performed over 31 days. On Day 1, CD4-positive, CD45RB-high cells isolated from the spleen of BALB/c mice (5×10^5 cells/mouse) were intravenously administered to SCID mice. From Day 16 to 31, the example compound was orally administered to the SCID mice once a day, followed by measuring body weights of all animals on Day 19, 22, 24, 26, 29 and 31. The efficacy was evaluated by body weight changes on Day 19, 22, 24, 26, 29 or 31. The body weight change (%) was determined by the formula shown below, where [A] is the body weight on Day 16, and [B] is the body weight on each day of body weight measurement (Day 19, 22, 24, 26, 29 or 31). body weight change (%)=B/A×100 (2) Results The results are shown in FIG. 6. The abscissa in the figures indicates the number of days elapsed, where the day on which CD4-positive, CD45RB-high cells isolated from the spleen of BALB/c mice (5×10^5 cells/mouse) were intravenously administered to SCID mice is Day 0.

## C[C@H]1CN(Cc2c(Cl)cccc2C(F)(F)F)C[C@@]1(CC(=O)O)C(=O)NC1CCN(CC2=CCCCC2)CC1 [compound (1), 2-[(3S,4R)-1-{[2-chloro-6-(trifluoromethyl)phenyl]methyl}-3-{[1-(cyclohex-1-en-1-ylmethyl)piperidin-4-yl]carbamoyl}-4-methylpyrrolidin-3-yl]acetic acid]
  effect on body weight change (FIG. 6): weight reduction-suppressing effect
